According to the NIST ThermoML archive (doi:10.1016/j.fluid.2014.06.024):

Assay: molar heat capacity at constant pressure; xn = mol fraction of the nth substance listed
Conditions: 101 kPa, Liquid, Small sample (50 mg) DSC

C1CCOCC1 [tetrahydropyran] + Cc1ccccc1
molar heat capacity at constant pressure [J/K/mol]
Conditions	298.15 K	303.15 K	308.15 K
x1 = 0.0937	157	158.5	160.08
x1 = 0.1369	156.86	158.39	159.99
x1 = 0.1932	156.64	158.18	159.81
x1 = 0.2308	156.46	158.01	159.65
x1 = 0.2894	156.15	157.71	159.37
x1 = 0.3187	155.98	157.54	159.22
x1 = 0.3507	155.79	157.35	159.04
x1 = 0.3916	155.52	157.09	158.79
x1 = 0.4206	155.32	156.9	158.61
x1 = 0.4618	155.02	156.61	158.34
x1 = 0.4906	154.81	156.4	158.14
x1 = 0.5137	154.63	156.23	157.98
x1 = 0.5517	154.32	155.94	157.71
x1 = 0.5907	154	155.62	157.42
x1 = 0.6208	153.74	155.38	157.19
x1 = 0.6623	153.37	155.02	156.86
x1 = 0.6987	153.03	154.69	156.55
x1 = 0.7135	152.89	154.56	156.42
x1 = 0.751	152.52	154.2	156.08
x1 = 0.7917	152.1	153.79	155.68
x1 = 0.8246	151.75	153.44	155.34
x1 = 0.8516	151.45	153.14	155.05
x1 = 0.8914	150.99	152.67	154.58
x1 = 0.9123	150.74	152.41	154.32
